Data as given in patent US20250325576A1, “COMPOSITIONS FOR USE IN CARTILAGE BREAKDOWN” (Société des Produits Nestlé S.A., priority 2013, published 2025).

Tests used:
Assay type in all cases: cell-based
Settings in all cases: 1.5 μM each, 3 days
ADAMTS-5 = ADAMTS-5 mRNA expression relative to GAPDH, bovine primary chondrocytes in alginate beads (real-time PCR)
Description: (§1) The skin was removed from the foot. The articulation was opened transversally. Intra articular ligaments were transected. The opened articulation was washed with phosphate buffered saline. With a scalpel blade, full thickness slices of cartilage were dissected out and collected in DMEM high glucose with 10 mM hepes and 1% Penicillin-Streptomycin. Slices of cartilage were washed in DMEM high glucose with 10 mM hepes and 1% Penicillin-Streptomycin.
(§2) Cartilage was then digested successively by 0.5 mg/ml of hyluronidase during 30 minutes, 1.0 mg/ml of pronase E during 60 minutes and 1.0 mg/ml of collagenase overnight under slow agitation.
(§3) After the enzymatic incubation, the cell suspension was filtered through a 70 μm cell strainer to separate cell cluster and remove tissue debris. The cell suspension was centrifuged to pellet the cells. […]
(§4) Total RNA was isolated from pool of 40 beads and isolated using RNeasy kit from Qiagen. cDNA was obtained by reverse transcription of RNA with the Primescript 1st strand cDNA Synthesis kit from Takara. mRNA expression of ADAMTS-5, COX-2, MMP-13 and GAPDH were quantified in real-time PCR (SYBR Green)
(§5) Data were expressed as fold change in gene expression compared to negative control (cells cultured in complete medium).
(§6) Data were expressed as median±S.E.Median (2 experiments of 3 replicates each). […]

COX-2 = COX-2 mRNA expression relative to GAPDH, bovine primary chondrocytes in alginate beads (real-time PCR)
Description: as §1, §2, §3, §4, §5, §6

MMP-13 = MMP-13 mRNA expression relative to GAPDH, bovine primary chondrocytes in alginate beads (real-time PCR)
Description: as §1, §2, §3, §4, §5, §6

[1] = disease conditions (IL1a 10 ng/ml), vs IL1a
[2] = normal conditions (absence of IL1a), vs CTL-

O=c1c(O)c(-c2ccc(O)c(O)c2)oc2cc(O)cc(O)c12 [Quercetin, quercetin]
ADAMTS-5 mRNA expression relative to GAPDH (ADAMTS-5; [1]): decrease expression of ADAMTS-5
ADAMTS-5 mRNA expression relative to GAPDH (ADAMTS-5; [2]): decrease expression of ADAMTS-5
COX-2 mRNA expression relative to GAPDH (COX-2; [1]): decrease expression of COX-2
COX-2 mRNA expression relative to GAPDH (COX-2; [2]): reduce expression of COX-2
MMP-13 mRNA expression relative to GAPDH (MMP-13; [1]): decrease expression of MMP-13
MMP-13 mRNA expression relative to GAPDH (MMP-13; [2]): decrease expression of MMP-13
